Results published in PMC10905675, “INX-315, a Selective CDK2 Inhibitor, Induces Cell Cycle Arrest and Senescence in Solid Tumors” (Cancer Discovery, 2023).

What was measured:
Experiment in all cases: SelectScreen ZLYTE
Type in all cases: biochemical
Conditions in all cases: INX-0315 at 100nM
ABL1 = biological target: T1, ABL1 (Homo sapiens, UniProt P00519)
T1 construct: purchased Thermo Fisher Scientific SelectScreen (plus Nanosyn / Reaction Biology for CDK/cyclin lines)
Description: (§1) INX-315 was first evaluated in the SelectScreen Biochemical Kinase Profiling at Thermo Fisher Scientific (Madison, WI). The primary screen consisted of INX-315 dosed at a single concentration of 100 nmol/L in 1% DMSO across each platform within the SelectScreen array of assays, LanthaScreen Eu Kinase Binding Assay; AdaptaScreen; and Z'LyteScreen using preestablished conditions at Thermo Fisher Scientific as shown in Supplementary Table S2. […] The follow-up screen consisted of 10-point dose–response curves for INX-315 from 1 µmol/L to 0.0495 nmol/L.

ABL2 (Arg) = biological target: T2, ABL2 (Arg) (Homo sapiens, UniProt P42684)
T2 construct: purchased Thermo Fisher Scientific SelectScreen (plus Nanosyn / Reaction Biology for CDK/cyclin lines)
Description: as §1

AURKC (Aurora C) = biological target: T3, AURKC (Aurora C) (Homo sapiens, UniProt Q9UQB9)
T3 construct: purchased Thermo Fisher Scientific SelectScreen (plus Nanosyn / Reaction Biology for CDK/cyclin lines)
Description: as §1

AXL = biological target: T4, AXL (Homo sapiens, UniProt P30530)
T4 construct: purchased Thermo Fisher Scientific SelectScreen (plus Nanosyn / Reaction Biology for CDK/cyclin lines)
Description: as §1

BRAF V599E = biological target: T5, BRAF V599E (Homo sapiens, UniProt P15056, V600E)
T5 construct: purchased Thermo Fisher Scientific SelectScreen (plus Nanosyn / Reaction Biology for CDK/cyclin lines)
Description: as §1

CAMK2B (CaMKII beta) = biological target: T6, CAMK2B (CaMKII beta) (Homo sapiens, UniProt Q13554)
T6 construct: purchased Thermo Fisher Scientific SelectScreen (plus Nanosyn / Reaction Biology for CDK/cyclin lines)
T6 sequence (Q13554 whole entry): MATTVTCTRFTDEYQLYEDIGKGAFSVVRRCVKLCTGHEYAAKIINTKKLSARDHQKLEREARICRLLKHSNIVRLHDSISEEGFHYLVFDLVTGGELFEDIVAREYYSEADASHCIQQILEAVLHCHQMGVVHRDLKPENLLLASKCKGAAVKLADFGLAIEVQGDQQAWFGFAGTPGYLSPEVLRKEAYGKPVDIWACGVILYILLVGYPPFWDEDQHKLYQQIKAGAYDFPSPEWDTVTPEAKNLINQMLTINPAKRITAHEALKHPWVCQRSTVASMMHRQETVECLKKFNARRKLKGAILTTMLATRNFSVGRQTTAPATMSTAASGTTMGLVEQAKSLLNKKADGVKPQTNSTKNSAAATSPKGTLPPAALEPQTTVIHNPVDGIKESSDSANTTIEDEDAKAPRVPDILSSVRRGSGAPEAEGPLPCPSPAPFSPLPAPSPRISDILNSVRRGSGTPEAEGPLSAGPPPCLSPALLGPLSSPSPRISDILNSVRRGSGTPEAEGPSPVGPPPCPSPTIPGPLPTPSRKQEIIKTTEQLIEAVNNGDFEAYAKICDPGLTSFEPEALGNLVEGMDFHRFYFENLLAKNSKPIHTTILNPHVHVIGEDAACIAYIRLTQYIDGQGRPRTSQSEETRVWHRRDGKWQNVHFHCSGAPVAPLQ
Description: as §1

[1] = biological target: T7, CSNK1E (CK1 epsilon) R178C (Homo sapiens, UniProt P49674, R178C)
T7 construct: purchased Thermo Fisher Scientific SelectScreen (plus Nanosyn / Reaction Biology for CDK/cyclin lines)
Description: as §1

CSNK1G2 (CK1 gamma 2) = biological target: T8, CSNK1G2 (CK1 gamma 2) (Homo sapiens, UniProt P78368)
T8 construct: purchased Thermo Fisher Scientific SelectScreen (plus Nanosyn / Reaction Biology for CDK/cyclin lines)
Description: as §1

CSNK1G3 (CK1 gamma 3) = biological target: T9, CSNK1G3 (CK1 gamma 3) (Homo sapiens, UniProt Q9Y6M4)
T9 construct: purchased Thermo Fisher Scientific SelectScreen (plus Nanosyn / Reaction Biology for CDK/cyclin lines)
Description: as §1

DYRK3 = biological target: T10, DYRK3 (Homo sapiens, UniProt O43781)
T10 construct: purchased Thermo Fisher Scientific SelectScreen (plus Nanosyn / Reaction Biology for CDK/cyclin lines)
T10 sequence (O43781 whole entry): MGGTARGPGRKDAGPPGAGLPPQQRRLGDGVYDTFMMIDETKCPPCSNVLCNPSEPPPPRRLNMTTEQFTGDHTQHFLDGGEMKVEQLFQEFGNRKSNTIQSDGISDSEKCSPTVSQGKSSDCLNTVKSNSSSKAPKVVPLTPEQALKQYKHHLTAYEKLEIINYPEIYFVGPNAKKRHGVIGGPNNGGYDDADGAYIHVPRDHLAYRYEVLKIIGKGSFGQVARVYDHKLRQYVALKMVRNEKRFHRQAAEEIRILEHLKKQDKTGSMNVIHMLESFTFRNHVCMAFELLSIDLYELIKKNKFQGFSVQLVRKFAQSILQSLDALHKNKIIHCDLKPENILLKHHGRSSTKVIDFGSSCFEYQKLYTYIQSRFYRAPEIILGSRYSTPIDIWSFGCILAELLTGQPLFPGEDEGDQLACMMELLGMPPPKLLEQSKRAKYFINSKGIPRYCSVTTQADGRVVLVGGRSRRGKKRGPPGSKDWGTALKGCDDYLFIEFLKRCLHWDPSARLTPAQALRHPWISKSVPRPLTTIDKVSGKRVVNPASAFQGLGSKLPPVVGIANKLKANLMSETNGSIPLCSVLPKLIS
Description: as §1

EPHB2 = biological target: T11, EPHB2 (Homo sapiens, UniProt P29323)
T11 construct: purchased Thermo Fisher Scientific SelectScreen (plus Nanosyn / Reaction Biology for CDK/cyclin lines)
Description: as §1

FGFR3 = biological target: T12, FGFR3 (Homo sapiens, UniProt P22607)
T12 construct: purchased Thermo Fisher Scientific SelectScreen (plus Nanosyn / Reaction Biology for CDK/cyclin lines)
Description: as §1

FGFR3 K650E = biological target: T13, FGFR3 K650E (Homo sapiens, UniProt P22607, K650E)
T13 construct: purchased Thermo Fisher Scientific SelectScreen (plus Nanosyn / Reaction Biology for CDK/cyclin lines)
Description: as §1

FGFR4 = biological target: T14, FGFR4 (Homo sapiens, UniProt P22455)
T14 construct: purchased Thermo Fisher Scientific SelectScreen (plus Nanosyn / Reaction Biology for CDK/cyclin lines)
Description: as §1

FGR = biological target: T15, FGR (Homo sapiens, UniProt P09769)
T15 construct: purchased Thermo Fisher Scientific SelectScreen (plus Nanosyn / Reaction Biology for CDK/cyclin lines)
Description: as §1

FRK (PTK5) = biological target: T16, FRK (PTK5) (Homo sapiens, UniProt P42685)
T16 construct: purchased Thermo Fisher Scientific SelectScreen (plus Nanosyn / Reaction Biology for CDK/cyclin lines)
Description: as §1

HIPK4 = biological target: T17, HIPK4 (Homo sapiens, UniProt Q8NE63)
T17 construct: purchased Thermo Fisher Scientific SelectScreen (plus Nanosyn / Reaction Biology for CDK/cyclin lines)
Description: as §1

JAK2 JH1 JH2 = biological target: T18, JAK2 JH1 JH2 (Homo sapiens, UniProt O60674)
T18 construct: JAK2 JH1 JH2; purchased Thermo Fisher Scientific SelectScreen (plus Nanosyn / Reaction Biology for CDK/cyclin lines)
Description: as §1

KIT V560G = biological target: T19, KIT V560G (Homo sapiens, UniProt P10721, V560G)
T19 construct: purchased Thermo Fisher Scientific SelectScreen (plus Nanosyn / Reaction Biology for CDK/cyclin lines)
Description: as §1

MAPK9 (JNK2) = biological target: T20, MAPK9 (JNK2) (Homo sapiens, UniProt P45984)
T20 construct: purchased Thermo Fisher Scientific SelectScreen (plus Nanosyn / Reaction Biology for CDK/cyclin lines)
Description: as §1

MARK1 (MARK) = biological target: T21, MARK1 (MARK) (Homo sapiens, UniProt Q9P0L2)
T21 construct: purchased Thermo Fisher Scientific SelectScreen (plus Nanosyn / Reaction Biology for CDK/cyclin lines)
Description: as §1

MERTK (cMER) = biological target: T22, MERTK (cMER) (Homo sapiens, UniProt Q12866)
T22 construct: purchased Thermo Fisher Scientific SelectScreen (plus Nanosyn / Reaction Biology for CDK/cyclin lines)
Description: as §1

MET (cMet) Y1235D = biological target: T23, MET (cMet) Y1235D (Homo sapiens, UniProt P08581, Y1235D)
T23 construct: purchased Thermo Fisher Scientific SelectScreen (plus Nanosyn / Reaction Biology for CDK/cyclin lines)
Description: as §1

MST1R (RON) = biological target: T24, MST1R (RON) (Homo sapiens, UniProt Q04912)
T24 construct: purchased Thermo Fisher Scientific SelectScreen (plus Nanosyn / Reaction Biology for CDK/cyclin lines)
Description: as §1

MUSK = biological target: T25, MUSK (Homo sapiens, UniProt O15146)
T25 construct: purchased Thermo Fisher Scientific SelectScreen (plus Nanosyn / Reaction Biology for CDK/cyclin lines)
Description: as §1

PASK = biological target: T26, PASK (Homo sapiens, UniProt Q96RG2)
T26 construct: purchased Thermo Fisher Scientific SelectScreen (plus Nanosyn / Reaction Biology for CDK/cyclin lines)
T26 sequence (Q96RG2 whole entry): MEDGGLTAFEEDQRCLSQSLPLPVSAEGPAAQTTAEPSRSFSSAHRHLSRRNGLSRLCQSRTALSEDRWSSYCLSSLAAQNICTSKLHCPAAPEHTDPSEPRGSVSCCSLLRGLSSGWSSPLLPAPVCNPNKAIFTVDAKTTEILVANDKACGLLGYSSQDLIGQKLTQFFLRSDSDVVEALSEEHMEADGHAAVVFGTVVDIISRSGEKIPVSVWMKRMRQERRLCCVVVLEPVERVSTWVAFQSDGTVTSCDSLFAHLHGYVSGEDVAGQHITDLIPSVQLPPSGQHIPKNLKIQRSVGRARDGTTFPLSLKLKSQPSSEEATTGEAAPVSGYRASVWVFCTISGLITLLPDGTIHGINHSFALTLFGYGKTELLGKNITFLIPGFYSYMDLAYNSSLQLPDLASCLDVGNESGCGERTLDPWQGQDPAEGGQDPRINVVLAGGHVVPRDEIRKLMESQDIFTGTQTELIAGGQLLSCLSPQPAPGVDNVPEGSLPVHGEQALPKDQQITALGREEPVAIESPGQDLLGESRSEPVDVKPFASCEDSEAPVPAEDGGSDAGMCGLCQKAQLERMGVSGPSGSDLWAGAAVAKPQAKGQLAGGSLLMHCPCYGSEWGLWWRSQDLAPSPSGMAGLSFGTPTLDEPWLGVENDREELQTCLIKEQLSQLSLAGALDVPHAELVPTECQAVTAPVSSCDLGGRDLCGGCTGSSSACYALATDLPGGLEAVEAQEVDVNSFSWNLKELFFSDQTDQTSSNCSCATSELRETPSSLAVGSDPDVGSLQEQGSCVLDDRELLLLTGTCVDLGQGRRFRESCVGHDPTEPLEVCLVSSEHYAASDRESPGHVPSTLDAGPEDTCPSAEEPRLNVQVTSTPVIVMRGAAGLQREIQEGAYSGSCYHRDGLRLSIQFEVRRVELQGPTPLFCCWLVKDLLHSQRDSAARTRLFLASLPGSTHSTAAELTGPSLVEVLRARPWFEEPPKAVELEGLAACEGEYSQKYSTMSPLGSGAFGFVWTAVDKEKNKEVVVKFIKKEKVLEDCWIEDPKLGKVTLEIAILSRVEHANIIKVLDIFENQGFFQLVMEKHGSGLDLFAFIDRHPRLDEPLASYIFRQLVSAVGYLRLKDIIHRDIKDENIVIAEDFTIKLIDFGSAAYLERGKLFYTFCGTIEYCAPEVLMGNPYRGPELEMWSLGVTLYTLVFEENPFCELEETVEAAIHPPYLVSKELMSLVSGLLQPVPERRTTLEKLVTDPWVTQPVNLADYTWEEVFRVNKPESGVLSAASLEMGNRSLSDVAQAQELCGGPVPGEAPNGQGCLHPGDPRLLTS
Description: as §1

PDGFRA V561D = biological target: T27, PDGFRA V561D (Homo sapiens, UniProt P16234, V561D)
T27 construct: purchased Thermo Fisher Scientific SelectScreen (plus Nanosyn / Reaction Biology for CDK/cyclin lines)
Description: as §1

PDK1 = biological target: T28, PDK1 (Homo sapiens, UniProt O15530)
T28 construct: purchased Thermo Fisher Scientific SelectScreen (plus Nanosyn / Reaction Biology for CDK/cyclin lines)
T28 sequence (O15530 whole entry): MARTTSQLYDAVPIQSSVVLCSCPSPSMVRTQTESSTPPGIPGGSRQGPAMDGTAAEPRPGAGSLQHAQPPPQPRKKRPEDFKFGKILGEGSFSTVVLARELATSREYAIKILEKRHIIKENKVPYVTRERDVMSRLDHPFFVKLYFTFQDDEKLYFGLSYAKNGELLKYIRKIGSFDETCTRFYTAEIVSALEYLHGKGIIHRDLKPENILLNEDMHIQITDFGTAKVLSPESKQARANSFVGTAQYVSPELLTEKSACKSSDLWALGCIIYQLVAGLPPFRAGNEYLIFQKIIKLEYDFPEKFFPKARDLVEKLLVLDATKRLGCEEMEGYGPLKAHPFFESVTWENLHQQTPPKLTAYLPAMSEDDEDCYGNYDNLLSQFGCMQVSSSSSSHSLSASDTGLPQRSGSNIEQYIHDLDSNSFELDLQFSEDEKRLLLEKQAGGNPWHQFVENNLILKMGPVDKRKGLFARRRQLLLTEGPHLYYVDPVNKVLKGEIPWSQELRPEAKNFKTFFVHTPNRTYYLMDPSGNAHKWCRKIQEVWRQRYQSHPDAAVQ
Description: as §1

PHKG1 = biological target: T29, PHKG1 (Homo sapiens, UniProt Q16816)
T29 construct: purchased Thermo Fisher Scientific SelectScreen (plus Nanosyn / Reaction Biology for CDK/cyclin lines)
Description: as §1

PRKACA (PKA) = biological target: T30, PRKACA (PKA) (Homo sapiens, UniProt P17612)
T30 construct: purchased Thermo Fisher Scientific SelectScreen (plus Nanosyn / Reaction Biology for CDK/cyclin lines)
Description: as §1

PRKCB1 (PKC beta I) = biological target: T31, PRKCB1 (PKC beta I) (Homo sapiens, UniProt P05771)
T31 construct: purchased Thermo Fisher Scientific SelectScreen (plus Nanosyn / Reaction Biology for CDK/cyclin lines)
Description: as §1

PRKCH (PKC eta) = biological target: T32, PRKCH (PKC eta) (Homo sapiens, UniProt P24723)
T32 construct: purchased Thermo Fisher Scientific SelectScreen (plus Nanosyn / Reaction Biology for CDK/cyclin lines)
Description: as §1

RET S891A = biological target: T33, RET S891A (Homo sapiens, UniProt P07949, S891A)
T33 construct: purchased Thermo Fisher Scientific SelectScreen (plus Nanosyn / Reaction Biology for CDK/cyclin lines)
T33 sequence (P07949 29-1114 S891A): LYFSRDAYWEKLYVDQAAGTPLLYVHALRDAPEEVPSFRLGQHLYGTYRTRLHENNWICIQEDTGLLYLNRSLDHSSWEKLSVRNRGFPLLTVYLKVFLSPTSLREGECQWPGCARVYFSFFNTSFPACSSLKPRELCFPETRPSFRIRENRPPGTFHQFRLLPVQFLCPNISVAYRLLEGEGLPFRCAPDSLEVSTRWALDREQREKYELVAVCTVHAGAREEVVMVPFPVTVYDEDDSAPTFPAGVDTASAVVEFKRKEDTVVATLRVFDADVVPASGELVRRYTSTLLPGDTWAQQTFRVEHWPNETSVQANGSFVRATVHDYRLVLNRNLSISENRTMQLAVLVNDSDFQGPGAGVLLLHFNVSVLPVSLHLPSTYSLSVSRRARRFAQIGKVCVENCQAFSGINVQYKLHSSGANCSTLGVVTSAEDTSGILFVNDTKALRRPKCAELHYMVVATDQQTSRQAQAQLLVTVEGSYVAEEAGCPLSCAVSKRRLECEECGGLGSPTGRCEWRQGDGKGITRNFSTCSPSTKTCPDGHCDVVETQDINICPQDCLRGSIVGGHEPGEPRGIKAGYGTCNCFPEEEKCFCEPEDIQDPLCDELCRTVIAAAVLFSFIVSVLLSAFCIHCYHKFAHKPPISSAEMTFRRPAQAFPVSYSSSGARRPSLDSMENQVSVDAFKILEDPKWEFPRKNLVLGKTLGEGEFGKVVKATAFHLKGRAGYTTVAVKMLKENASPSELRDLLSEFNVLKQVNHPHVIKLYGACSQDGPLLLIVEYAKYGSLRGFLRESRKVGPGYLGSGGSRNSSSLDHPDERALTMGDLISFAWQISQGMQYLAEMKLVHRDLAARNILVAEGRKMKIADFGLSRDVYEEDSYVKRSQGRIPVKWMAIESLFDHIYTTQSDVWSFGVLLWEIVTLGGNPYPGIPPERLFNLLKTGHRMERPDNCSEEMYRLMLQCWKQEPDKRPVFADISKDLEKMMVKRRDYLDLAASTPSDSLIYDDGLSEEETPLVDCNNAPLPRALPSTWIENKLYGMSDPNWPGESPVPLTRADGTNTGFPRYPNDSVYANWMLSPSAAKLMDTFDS
Description: as §1

RET Y791F = biological target: T34, RET Y791F (Homo sapiens, UniProt P07949, Y791F)
T34 construct: purchased Thermo Fisher Scientific SelectScreen (plus Nanosyn / Reaction Biology for CDK/cyclin lines)
T34 sequence (P07949 29-1114 Y791F): as the sequence (P07949 29-1114 S891A) above, with Y763F, A863S counted along it
Description: as §1

RPS6KA1 (RSK1) = biological target: T35, RPS6KA1 (RSK1) (Homo sapiens, UniProt Q15418)
T35 construct: purchased Thermo Fisher Scientific SelectScreen (plus Nanosyn / Reaction Biology for CDK/cyclin lines)
T35 sequence (Q15418 whole entry): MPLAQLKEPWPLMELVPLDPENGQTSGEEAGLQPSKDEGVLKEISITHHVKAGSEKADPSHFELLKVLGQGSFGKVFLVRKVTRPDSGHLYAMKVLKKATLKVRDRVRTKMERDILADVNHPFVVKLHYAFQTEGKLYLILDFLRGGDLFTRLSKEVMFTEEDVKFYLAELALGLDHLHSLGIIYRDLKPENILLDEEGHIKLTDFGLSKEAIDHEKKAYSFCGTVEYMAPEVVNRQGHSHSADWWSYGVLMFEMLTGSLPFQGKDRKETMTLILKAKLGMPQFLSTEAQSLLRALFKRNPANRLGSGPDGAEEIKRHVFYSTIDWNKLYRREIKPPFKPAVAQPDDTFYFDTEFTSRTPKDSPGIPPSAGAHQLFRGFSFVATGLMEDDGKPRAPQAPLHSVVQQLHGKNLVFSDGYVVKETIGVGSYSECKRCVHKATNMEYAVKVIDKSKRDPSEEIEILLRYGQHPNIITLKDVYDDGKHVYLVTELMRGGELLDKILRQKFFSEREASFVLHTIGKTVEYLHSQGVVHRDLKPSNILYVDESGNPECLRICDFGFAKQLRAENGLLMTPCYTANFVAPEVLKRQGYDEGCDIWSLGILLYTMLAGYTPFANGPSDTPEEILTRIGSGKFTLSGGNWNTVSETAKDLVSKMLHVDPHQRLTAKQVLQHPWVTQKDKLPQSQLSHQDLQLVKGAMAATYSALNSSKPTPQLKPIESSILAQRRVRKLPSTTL
Description: as §1

RPS6KA3 (RSK2) = biological target: T36, RPS6KA3 (RSK2) (Homo sapiens, UniProt P51812)
T36 construct: purchased Thermo Fisher Scientific SelectScreen (plus Nanosyn / Reaction Biology for CDK/cyclin lines)
Description: as §1

`NS(=O)(=O)c1ccc(Nc2ncc3cc4n(c3n2)C2(CCCCC2)C(=O)NN4)cc1` [INX-315] gave an inhibition at 0.1 µM (ABL1) of 14%, an inhibition at 0.1 µM (ABL2 (Arg)) of 14% and an inhibition at 0.1 µM (AURKC (Aurora C)) of 53%. For the same compound, the inhibition at 0.1 µM (AXL) was 17%, the inhibition at 0.1 µM (BRAF V599E) was 7% and the inhibition at 0.1 µM (CAMK2B (CaMKII beta)) was 17%. For the same compound, the inhibition at 0.1 µM [1] was 5%, the inhibition at 0.1 µM (CSNK1G2 (CK1 gamma 2)) was 3% and the inhibition at 0.1 µM (CSNK1G3 (CK1 gamma 3)) was -1%. The inhibition at 0.1 µM (DYRK3) was 8%, the inhibition at 0.1 µM (EPHB2) was 20% and the inhibition at 0.1 µM (FGFR3) was -3%. It also gave an inhibition at 0.1 µM (FGFR3 K650E) of 31%, an inhibition at 0.1 µM (FGFR4) of 2% and an inhibition at 0.1 µM (FGR) of 11%. It also gave an inhibition at 0.1 µM (FRK (PTK5)) of 7%, an inhibition at 0.1 µM (HIPK4) of 7% and an inhibition at 0.1 µM (JAK2 JH1 JH2) of 44%. For the same compound, the inhibition at 0.1 µM (KIT V560G) was 27%, the inhibition at 0.1 µM (MAPK9 (JNK2)) was -1% and the inhibition at 0.1 µM (MARK1 (MARK)) was 9%. The inhibition at 0.1 µM (MERTK (cMER)) was 20%, the inhibition at 0.1 µM (MET (cMet) Y1235D) was -2% and the inhibition at 0.1 µM (MST1R (RON)) was 2%. The inhibition at 0.1 µM (MUSK) was 8%, the inhibition at 0.1 µM (PASK) was 2% and the inhibition at 0.1 µM (PDGFRA V561D) was 53%. The inhibition at 0.1 µM (PDK1) was 7%, the inhibition at 0.1 µM (PHKG1) was 4% and the inhibition at 0.1 µM (PRKACA (PKA)) was 4%. For the same compound, the inhibition at 0.1 µM (PRKCB1 (PKC beta I)) was 12%, the inhibition at 0.1 µM (PRKCH (PKC eta)) was 11% and the inhibition at 0.1 µM (RET S891A) was 46%. It also gave an inhibition at 0.1 µM (RET Y791F) of 50%, an inhibition at 0.1 µM (RPS6KA1 (RSK1)) of 47% and an inhibition at 0.1 µM (RPS6KA3 (RSK2)) of 27%.
